# According to ChEMBL document CHEMBL3988442, “University of Dundee, Small-Polar-MMV Screening Library” (2021):
# Target: T1, Ubiquitin-activating enzyme e1, putative (Leishmania donovani (strain BPK282A1), UniProt E9BSI1)
# T1 sequence (E9BSI1 whole entry): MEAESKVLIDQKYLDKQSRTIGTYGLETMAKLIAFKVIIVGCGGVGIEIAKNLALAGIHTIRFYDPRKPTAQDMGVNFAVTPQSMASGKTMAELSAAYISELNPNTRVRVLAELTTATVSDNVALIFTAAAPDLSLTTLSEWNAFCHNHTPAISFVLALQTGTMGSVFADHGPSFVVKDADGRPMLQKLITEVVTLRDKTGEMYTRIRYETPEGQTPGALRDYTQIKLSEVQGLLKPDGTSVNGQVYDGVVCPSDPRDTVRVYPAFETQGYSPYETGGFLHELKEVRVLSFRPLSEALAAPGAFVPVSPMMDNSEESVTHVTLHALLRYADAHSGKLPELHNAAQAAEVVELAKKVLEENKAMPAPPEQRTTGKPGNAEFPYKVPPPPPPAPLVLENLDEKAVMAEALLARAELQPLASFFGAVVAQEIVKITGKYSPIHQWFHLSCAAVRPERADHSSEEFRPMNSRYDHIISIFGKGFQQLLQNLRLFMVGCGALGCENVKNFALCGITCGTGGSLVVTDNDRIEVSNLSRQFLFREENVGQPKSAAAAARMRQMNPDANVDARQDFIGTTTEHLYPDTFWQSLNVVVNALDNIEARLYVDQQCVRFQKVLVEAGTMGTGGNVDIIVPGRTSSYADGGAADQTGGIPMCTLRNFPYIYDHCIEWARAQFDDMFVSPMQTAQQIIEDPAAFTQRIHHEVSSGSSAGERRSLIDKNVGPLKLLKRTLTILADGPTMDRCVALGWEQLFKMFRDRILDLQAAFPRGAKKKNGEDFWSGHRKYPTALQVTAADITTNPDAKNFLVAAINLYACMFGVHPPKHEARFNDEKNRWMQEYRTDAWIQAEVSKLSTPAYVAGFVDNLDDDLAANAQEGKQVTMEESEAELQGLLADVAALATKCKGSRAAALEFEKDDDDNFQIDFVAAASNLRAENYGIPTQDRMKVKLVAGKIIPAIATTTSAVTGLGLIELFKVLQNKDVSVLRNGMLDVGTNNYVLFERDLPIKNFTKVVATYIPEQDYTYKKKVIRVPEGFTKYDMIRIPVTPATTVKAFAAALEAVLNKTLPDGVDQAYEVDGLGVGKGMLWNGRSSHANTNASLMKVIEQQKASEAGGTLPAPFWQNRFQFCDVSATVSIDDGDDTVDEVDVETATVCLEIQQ
# Experiment: Leishmania donovani Ubiquitin Activating Enzyme (LdE1)
# Type: functional
row,SMILES,IC50
1,CC[C@H]1NCCC[C@]12CCC(=O)N2Cc1ccncc1,> 100 µM
2,CC(Cn1cccn1)NCc1nc(-c2ccco2)no1 (configuration not stated),> 100 µM
3,CC(Cn1cccn1)NCc1nc(-c2ccsc2)no1 (configuration not stated),> 100 µM
4,Cc1ncc(C(=O)NCCNc2ncccc2C#N)s1,> 100 µM
5,Cc1nc(C(C)C)sc1C(=O)NCCNc1ncccc1C#N,> 100 µM
6,Cc1nc(C)c(C(=O)NCCNc2ncccc2C(F)(F)F)s1,> 100 µM
7,CCCn1nc2c(cc1=O)CN(Cc1nnc(C3CC3)o1)CC2,> 100 µM
8,CC(C)n1nc2c(cc1=O)CN(Cc1nnc(C3CC3)o1)CC2,> 100 µM
9,CCn1nc2c(cc1=O)CN(Cc1nnc(C3CC3)o1)CC2,> 100 µM
10,Cc1nc(C)n(CC2CCCCN2Cc2ncc(C(C)(C)C)o2)n1 (configuration not stated),> 100 µM
11,CC(NC(=O)NCCNc1ncccn1)c1cccs1 (configuration not stated),> 100 µM
12,CC(C)C(NC(=O)NCCNc1ccccn1)c1cccs1 (configuration not stated),> 100 µM
13,CC(C)(C)c1cnc(CN2CCC[C@H]2CO)o1,> 100 µM
14,Cc1nc(C)n(CC2CCCCN2Cc2nnc(C3CC3)o2)n1 (configuration not stated),> 100 µM
15,COc1ccc(CNCc2ccnc(N3CCOCC3)c2)cc1OC,> 100 µM
16,COc1ccc(CNCc2ccc(N3CCCCC3)nc2)cc1OC,> 100 µM
17,CNS(=O)(=O)Cc1ccc(CNC(=O)Nc2cccnc2)cc1,> 100 µM
18,COCCNc1ccc(CNC(=O)Nc2cn[nH]c2)cc1,> 100 µM
19,CC(O)CN1CCN(C(=O)c2ccc(N(C)C)nc2)CC1 (configuration not stated),> 100 µM
20,CC(C)c1nc2n(n1)CC(NCc1nnnn1C1CC1)CC2 (configuration not stated),> 100 µM
21,CC(C)c1nc2n(n1)CC(NCc1nnc(-c3ccco3)o1)CC2 (configuration not stated),> 100 µM
22,Cc1nc(C)c(C(=O)NCCNc2ncccc2C#N)s1,> 100 µM
23,Cc1ccc(C(=O)NCCNc2ncccc2C#N)c(=O)[nH]1,> 100 µM
24,CC[C@H]1N(C)CCC[C@]12CCC(=O)N2Cc1ccncc1,> 100 µM

# Other lines, results leading:
row,IC50,SMILES
1,> 100 µM,Cn1cc(C(=O)N2C[C@@H]3COC[C@]3(COCc3cccnc3)C2)cn1
2,> 100 µM,COCCC(=O)N1C[C@@H]2COC[C@]2(COCc2cccnc2)C1
3,> 100 µM,Cc1cc(C(=O)N2C[C@@H]3COC[C@]3(COCc3cccnc3)C2)no1
4,> 100 µM,CC(C)N1CCC(Cc2cc(-c3ccccc3C(=O)O)ncn2)CC1
5,> 100 µM,CC(C)N1CCC(Cc2cc(-c3cccc(C(=O)O)c3)ncn2)C1 (configuration not stated)
6,> 100 µM,CC(C)N1CCC(Cc2cnc(-c3cccc(C(=O)O)c3)cn2)C1 (configuration not stated)
7,> 100 µM,O=C(NCc1ccccc1Cn1cncn1)C1CCC1
8,> 100 µM,O=C(NCc1ccccc1Cn1cncn1)C1CC1
9,> 100 µM,O=C(NCc1ccccc1Cn1cncn1)C1CCCC1
10,> 100 µM,O=C(NCc1ccccc1Cn1cncn1)C1CCCCC1
11,> 100 µM,O=C(CCS(=O)(=O)C1CCCC1)NCc1ccccc1Cn1cncn1
12,> 100 µM,O=C(CCNC(=O)C1CCCC1)NCc1ccccc1Cn1ccnc1
13,> 100 µM,O=C(CCC1CCCO1)NCc1ccccc1Cn1cncn1 (configuration not stated)
14,> 100 µM,CC(Cn1cccn1)NCCCc1nc(-c2cccs2)no1 (configuration not stated)
15,> 100 µM,CC(Cn1cccn1)NCc1nc(-c2ccccn2)no1 (configuration not stated)
16,> 100 µM,Cc1cnn(CC(C)NCc2nc(-c3cccs3)no2)c1 (configuration not stated)
17,> 100 µM,c1csc(-c2noc(CNCCn3cccn3)n2)c1
18,> 100 µM,CC(Cn1cccn1)NCc1nc(-c2ccccc2Cl)no1 (configuration not stated)
19,> 100 µM,Cn1ccnc1CN1CCCN(C(=O)COCC2CC2)CC1
20,> 100 µM,CC(Oc1ccccc1)C(=O)N1CCCN(Cc2nccn2C)CC1 (configuration not stated)
21,> 100 µM,CSC(C)C(=O)N1CCCN(Cc2nccn2C)CC1 (configuration not stated)
22,> 100 µM,CC(OCC1CC1)C(=O)N1CCCN(Cc2nccn2C(C)C)CC1 (configuration not stated)
23,> 100 µM,Cn1ccnc1CN1CCCN(C(=O)CC(C2CC2)C2CC2)CC1
24,> 100 µM,CC(C)c1nc2n(n1)CC(NCc1nc(C3CC3)no1)CC2 (configuration not stated)
25,> 100 µM,CCCc1nc(C)c(C(=O)NCCNc2ncccc2C#N)s1
26,> 100 µM,Cc1nc(C(C)(C)C)sc1C(=O)NCCNc1ncccc1C#N
27,> 100 µM,Cc1ncsc1C(=O)NCCNc1ncccc1C#N
28,> 100 µM,CCc1nc(C)c(C(=O)NCCNc2ncccc2C#N)s1
